Literature values as cited in patent US6770729B2, “Polymer compositions containing bioactive agents and methods for their use” (priority 2002, dated 2004).

Target: avidin (Gallus gallus, UniProt P02701)
Sequence (P02701 25-152): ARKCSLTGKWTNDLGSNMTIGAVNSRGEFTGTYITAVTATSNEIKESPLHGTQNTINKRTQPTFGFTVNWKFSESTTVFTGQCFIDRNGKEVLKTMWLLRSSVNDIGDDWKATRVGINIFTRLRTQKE

## O=C(O)CCCC[C@@H]1SC[C@@H]2NC(=O)N[C@@H]21 [biotin]
Avidin tetramer binds 4 biotin molecules in solution, noncovalent interaction
  binding constant: about 10^15 M^−1
avidin-biotin interaction, dissociation of the complex
  half-life in vivo: about 89 days
